The values that follow come from patent publication US20210032304A1, “FIBROBLAST GROWTH FACTOR ANALOGS AND USES THEREOF” (University of Florida Research Foundation, Inc., priority 2018, published 2021).

The subject of test [1] is radiation damage (sub-TBI) in Swiss male mice. The experiment in a line: Sub-TBI irradiation model, survival and body weight over 30 days. The test is classed as in vivo. As to conditions: for dose needed to gain survival benefit: sub-TBI NIH Swiss model. The procedure:
150 outbred stock (NIS) Swiss males (8-11 weeks) were subjected to 5 sub-TBI doses (0, 18, 19.5, 20.5, 21.5 Gy). Three single dosages of FGF-P were administered 24 hr post-IR (5.0, 10, and 20 mg/kg), and two single dosages of FGF-PT were administered 24 hr post-IR (10 and 20 mg/kg). One dosage of FGF2 (0.3 mg/kg) and a saline vehicle control was also administered. Animals were followed for signs of distress, survivors, and weight loss/gain for 30 days. Survivors at the end of 30 days were euthanized.
Radiation doses were chosen to bracket the highest dose with few or no deaths (LD20) and the lowest dose with few or no survivors (LD80), thus ensuring a range that includes the LD50 and statistically delivers the highest accuracy and precision per animal.

In test [2] the target is T1, FGFR-1 alpha IIIc (Homo sapiens, UniProt P11362). As to the kind of experiment: SPR (Horiba XelPlex), receptor immobilised, analyte in flow; given as 'associative binding constants'.
Test [3] deals with FGFR-2 alpha IIIc (Homo sapiens, UniProt P21802). The description is as above.
For test [4], the target named is T1, FGFR-1 alpha IIIc. As to the kind of experiment: SPR (Horiba XelPlex), ratio to rhFGF2 on the same receptor.
The target of test [5] is T2, FGFR-1 alpha IIIb, P11362.
T2 chain: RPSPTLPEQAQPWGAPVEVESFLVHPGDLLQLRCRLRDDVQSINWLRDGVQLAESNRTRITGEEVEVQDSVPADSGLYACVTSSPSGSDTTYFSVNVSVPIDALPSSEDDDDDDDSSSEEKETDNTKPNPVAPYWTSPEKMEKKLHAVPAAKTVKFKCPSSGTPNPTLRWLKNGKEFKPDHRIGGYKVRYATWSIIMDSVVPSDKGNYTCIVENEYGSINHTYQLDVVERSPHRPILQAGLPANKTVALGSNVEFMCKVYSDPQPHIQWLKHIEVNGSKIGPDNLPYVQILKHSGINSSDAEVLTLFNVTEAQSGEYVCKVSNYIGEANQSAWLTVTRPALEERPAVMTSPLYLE
Described as above.

Test [6] deals with T2, FGFR-1 alpha IIIb, P11362. As to the kind of experiment: SPR (Horiba XelPlex), receptor immobilised, analyte in flow; given as 'associative binding constants'.
Where [7] appears, read: 18 Gy sub-TBI, single dose 24 hr post-IR, different doses, 30 days.
The mark [8] stands for this setting: 19.5 Gy sub-TBI, all doses, single dose 24 hr post-IR.
The mark [9] stands for this setting: 20.5 Gy sub-TBI, many doses, particularly FGF-P 5-20 mg/kg.

One may read the Kd as the equilibrium constant for the complex coming apart. A low value points to higher affinity.

Residues, ends and D or L forms follow the SMILES beside them.

In the case of `CC(C)C[C@@H]1NC(=O)[C@H](C)NC(=O)[C@H](C(C)C)NC(=O)[C@H](Cc2ccc(O)cc2)NC(=O)[C@H](Cc2c[nH]c3ccccc23)NC(=O)[C@H](CO)NC(=O)[C@H]([C@@H](C)O)NC(=O)[C@H](Cc2ccc(O)cc2)NC(=O)[C@H](CCCCN)NC(=O)[C@H](CCCNC(=N)N)NC(=O)[C@H](CO)NC(=O)[C@H](CCCNC(=N)N)NC(=O)[C@H](Cc2ccc(O)cc2)NC(=O)[C@@H](N)CSSC[C@@H](C(=O)O)NC(=O)[C@H](CCCNC(=N)N)NC(=O)[C@H](CCCCN)NC1=O` [FGF-PT] (HELM PEPTIDE1{C.Y.R.S.R.K.Y.T.S.W.Y.V.A.L.K.R.C}$PEPTIDE1,PEPTIDE1,1:R3-17:R3$$$V2.0; N-terminus and C-terminus assumed), the survival entry in test [1] (setting [7]), in test [1] (setting [8]) and in test [1] (setting [9]) was “Improved survival” in each case. In addition, the weight recovery entry in test [1] (setting [7]) is “weight recovery”; in test [1] (19.5 Gy sub-TBI, different doses, recovery after severe weight loss), “weight recovery”; in test [1] (20.5 Gy sub-TBI, different doses, recovery after very severe weight loss) it was “weight recovery”. Further, the “dose needed to gain survival benefit” value in test [1] is on record as 10 mg/kg.
In the case of “recombinant human basic FGF (rhFGF2) (from UniProt P09038 143-288) (ligand)”, the values for the dissociation constant (Kd) in test [2] and in test [3] were 0.83 nM and 1.7 nM, respectively.
For the molecule rhFGF2: recombinant human basic FGF, the survival entry in test [1] (setting [8]) and in test [1] (setting [9]) was “Improved survival” throughout. In test [1], the “dose needed to gain survival benefit” value is 0.3 mg/kg.
With YRSRKYTSWYVALKR (modifications not checked) [FGF-PT], the fold of binding constant against rhFGF2 in test [4] and in test [5] was 1000 fold throughout. The values for the Kd in test [6] and in test [2] were 1500 nM and 1000 nM, respectively.
